Columns and labels:
[1] = system: human bronchus preparation; assay: Bronchorelaxation test: LTD4-induced contraction of human bronchus preparation; conditions: 10 μM capsazepine, 1 h exposure, then 10 nM LTD4; compared with control LTD4 contraction; exemplary test of FIG. 7
Procedure: Dissection and mounting of lung tissue preparations. Lung tissue was obtained from patients undergoing lobectomia or pulmectomia due to lung carcinoma. The tissue was placed in a dissection chamber continuously perfused with 10 ml min^−1 of a physiological saline solution (PSS) at room temperature. An airway was identified in the cut part of the lobe, and a bronchus of 10-20 mm length and 1-2 mm diameter was obtained. The bronchus was cut into rings of a width of about 2-3 mm. Each bronchial ring was cleaved to obtain an about rectangular oblong preparation, one end of which was tied to a small steel hook connected to a force transducer, while the other end of the preparation was attached to a fixed hook. This is followed by a period of adjustment, as described below. The preparation was mounted in an atmosphere containing […] and 6% of CO2.
Experimental chamber. The experimental chamber has a volume of 5 ml. It is perfused with PSS at a rate of 3 ml min^−1. Two preparations are mounted in the chamber, and measurements on them are performed in parallel. For mechanical tensioning each force transducer (AME 801, SensoNor A/S, Horten, Norway) is connected to a micrometer screw. The substances to be tested, the reference substance (capsazepine), and transmitter (LTD4) are injected upstream of the preparation(s).
Materials. […]

| melting point [°C] | SMILES | remaining contraction (test force) relative to that caused by the control force [1] |
| --- | --- | --- |
| – | Oc1cc2c(cc1O)CN(C(=S)NCCc1ccc(Cl)cc1)CCC2 [capsazepine] | about 55% |
| 83 to 86 | Oc1c(O)c(Cl)c2c(c1Cl)CCN(C(=S)NCCc1ccc(Cl)cc1)C2 [Res-4-95, 5,8-Dichloro-N-[2-(4-chlorophenyl)ethyl]-6,7-dihydroxy-3,4-dihydroisoquinoline-2(1H)-carbothioamide] | – |
